{"source": "patent US8071744B2", "about": "“TRP/HIS exchange and kynurenin induced TRP transport” (Carnegie Institution of Washington, priority 2007, dated 2011)", "molecules": {"B1": {"name": "IFNγ: cytokine interferon gamma, induces indoleamine 2,3-dioxygenase in KB cells (protein, UniProt P01579 24-161, looked up)", "Interferon gamma": "QDPYVKEAENLKKYFNAGHSDVADNGTLFLGILKNWKEESDRKIMQSQIVSFYFKLFKNFKDDQSIQKSVETIKEDMNVKFFNSNKKKRDDFEKLTNYSVTDLNVQRKAIHELIQVMAELSPAAKTGKRKRSQMLFRG"}}, "key": {"[1]": {"target": "T1, FLIPW-CTYT (Escherichia coli, UniProt P0A881)", "T1 construct": "Venus (YFP variant); made in house; host or cells: E. coli BL21(DE3)gold", "experiment": "In vitro FRET titration of FLIPW-CTYT with tryptophan substrates and kynurenines", "assay_type": "binding, E. coli", "details": "data not shown", "experimental": "(§1) In vitro characterization of FLIPW and FLIPpur sensors. […] The eCFP emission used for the ratio calculation was determined at 485 nm. Protein was diluted to give Venus/eYFP readouts of 20,000 to 30,000 at a manual gain between 70-75. By using the change in FRET ratio upon binding of ligand, affinity constants (Kd) were determined by fitting the titration curves to a single-site-binding isotherm: R=Rapo+(Rsat−Rapo)·(n·[L])/(Kd+[L]) with [L], ligand concentration; n, number of equal binding sites; R, ratio; Rapo, ratio in the absence of ligand; and Rsat, ratio at saturation with ligand. Three independent protein preparations were analyzed and each protein preparation was analyzed in triplicate."}, "[2]": {"test_system": "COS-7 cells", "experiment": "Ratio imaging of intracellular tryptophan in perfused COS-7 cells expressing FLIPW-CTYT (uptake and exchange)", "assay_type": "cell-based, monkey", "details": "for tryptophan export from tryptophan-preloaded cells (counterexchange): extracellular amino acids at 100 μM, DL-HK 200-1000 μM; for effect on the uptake rate of 100 μM L-tryptophan: inhibitors at 5 mM", "experimental": "(§2) Tissue culture and transfection. For cytosolic expression in COS-7 cells, the gene encoding CTYT was amplified by PCR with primers encoding unique BamHI and EcoRI restriction sites at the 5′ and 3′ end, respectively, and cloned into BamHI/EcoRI digested peDNA3.1(+) vector (Invitrogen), resulting in plasmid pTK222. COS-7 cells were grown in Dulbecco's modified Eagle's medium (high glucose; DMEM, Gibco) with 10% fetal calf serum and 50 μg; ml penicillin and 50 μg/ml streptomycin (Gibco). Cells were cultured at 37° C. and 5% CO2. For imaging, cells were cultured in 8-well LabTekII German tissue culture glass slides (Nalg Nunc International) and transiently transfected at 50-70% confluence using Lipofectamine 2000 Reagent (Invitrogen) in Opti-MEM I reduced serum medium (Gibco): After transfection, cells were cultured for 16 hours in Opti-MEM followed by 3 hours in DMEM prior to imaging.\nImaging. Ratio imaging was performed on an inverted fluorescence microscope (DM IRE2, Leica) with a Quant EM digital camera (Photometrics) and 20× oil immersion, 63× water immersion lenses (HC PL APO 20×/0.7 or HCX PL APO, Leica, Germany). Dual emission intensity ratios were simultaneously recorded using a DualView with an OI-5-EM filter set (eCFP 480/30; eYFP 535/40; Optical 17 Insights, USA) and Metafluor 6.3r6 software (Molecular Devices, USA). A Sutter Instruments Lambda DG4 provided excitation. Images were acquired within the linear detection range of the camera and exposure times varied between 50 to 200 ms, depending on the expression level, with software binning between 2 and 3. […] Cells were perfused with Tyrode's buffer at flow rates of 1.0 ml/min in a vacuum chamber with a total volume of 0.1 ml. Inhibitors BCH and MeIAB were used at 5 mM concentrations. For determination of the substrate specificity of the tryptophan exchange, all 20 amino acids were tested at 100 μM concentrations."}, "[3]": {"target": "LAT1 (Homo sapiens, UniProt Q01650)", "sequence (Q01650 whole entry)": "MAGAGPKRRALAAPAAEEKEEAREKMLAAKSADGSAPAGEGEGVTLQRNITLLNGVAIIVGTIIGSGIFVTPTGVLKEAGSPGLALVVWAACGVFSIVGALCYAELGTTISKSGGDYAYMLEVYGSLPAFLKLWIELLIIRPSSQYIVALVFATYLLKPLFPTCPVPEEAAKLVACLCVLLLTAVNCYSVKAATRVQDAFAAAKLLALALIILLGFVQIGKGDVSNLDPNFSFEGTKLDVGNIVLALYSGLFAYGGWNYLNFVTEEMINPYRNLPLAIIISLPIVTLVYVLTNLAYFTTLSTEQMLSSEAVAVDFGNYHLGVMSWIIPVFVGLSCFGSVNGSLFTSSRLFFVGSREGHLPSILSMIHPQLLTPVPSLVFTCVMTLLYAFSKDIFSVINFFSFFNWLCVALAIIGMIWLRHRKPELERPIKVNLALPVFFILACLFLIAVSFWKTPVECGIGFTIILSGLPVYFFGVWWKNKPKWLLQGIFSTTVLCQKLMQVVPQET", "details": "oocytes; sum of free, incorporated and degraded tryptophan; cited from earlier work"}, "[4]": {"test_system": "COS-7 cells", "details": "read-out: apparent KM for combined transport and metabolism; 96-well microplate, Michaelis-Menten fit of FRET increase rate, 0.05-25 μM L-tryptophan", "experimental": "as §2"}, "[5]": {"target": "T2, FLIPW-CTY (Escherichia coli, UniProt P0A881)", "T2 construct": "fused on or other part: eCFP at the N-terminus and Venus (YFP variant) at the C-terminus as FRET reporter handles; pRSETb vector leader; Gateway att-derived linkers", "experiment": "In vitro FRET titration of FLIPW-CTY with tryptophan substrates", "assay_type": "binding, E. coli", "experimental": "as §1"}, "[6]": {"target": "unmodified TrpR (Escherichia coli, UniProt P0A881)", "details": "cited from earlier work"}, "[7]": {"test_system": "KB cells", "experiment": "FRET imaging of intracellular tryptophan in interferon-gamma treated KB cells", "assay_type": "cell-based, human", "details": "IFNγ 500 U/ml, perfusion with Tyrode's buffer", "experimental": "It was also assessed whether affecting the metabolism of tryptophan could be monitored using the FRET nanosensors. The induction of indoleamine 2,3-dioxygenase (IDO) by interferon-gamma in KB cells has been described by Ozaki et al. (Proc. Natl. Acad. Sci. U.S.A. (1988)85: 1242-1246). Indoleamine 2,3-dioxygenase degrades tryptophan to formyl-kynurenine in the cytosol. Accordingly, KB cells were seeded at 10%, 25%, 50% dilution (derived from a suspension that was from ˜90% confluent plate). Interferon gamma (IFNγ) was added at 500 and 1000 U/ml. KB cells used as a control (i.e. no IFNγ) were seeded at 10% dilution only. KB cells were incubated in growth medium (MEM-alpha, 10° A FBS (fetal bovine serum), penicillin/streptomycin) and then in OPTIMEM for 4 days prior to imaging. Cells were transfected (in OPTIMEM) with the pTK222c construct 1 day prior to imaging. IFNγ was maintained during transfection in OPTIMEM. Three hours prior to imaging, the cells were incubated in growth medium (containing IFNγ in the respective cultures). After three hours, the growth medium was exchanged with Tyrode's solution and the cells were kept in incubation chamber until analysis. The cells were perfused with 1 μM, 5 μM, 50 μM, and 100 μM L-tryptophan in Tyrode's solution."}}}
{"molecule": "Nc1c(O)cccc1C(=O)CC(N)C(=O)O", "note": "(stereo not drawn) [HK, 3-hydroxy-kynurenine]", "values": [{"measurement": "FLIPW-CTYT response or interference with tryptophan binding in vitro", "setting": "[1]", "value": "did not result in a FLIPW-CTYT response or interfere with tryptophan binding to the sensor"}, {"measurement": "tryptophan export from tryptophan-preloaded cells (counterexchange)", "setting": "[2]", "value": "resulted in reduction of the fluorophore emission ratios in the COS-7 cells, evidencing tryptophan export"}]}
{"molecule": "CNC(C)(C)C(=O)O", "values": [{"measurement": "effect on the uptake rate of 100 μM L-tryptophan", "setting": "[2]", "value": "did not decrease uptake rates"}]}
{"molecule": "CC[C@H](C)[C@H](N)C(=O)O", "note": "[isoleucine]", "values": [{"measurement": "tryptophan export from tryptophan-preloaded cells (counterexchange)", "setting": "[2]", "value": "able to promote tryptophan export"}]}
{"molecule": "NC1(C(=O)O)CC2CCC1C2", "note": "(stereo not drawn) [BCH, 2-aminobicyclo-(2,2,1)-heptane-2-carboxylic acid]", "values": [{"measurement": "effect on the uptake rate of 100 μM L-tryptophan", "setting": "[2]", "value": "decreased the uptake of tryptophan"}]}
{"molecule": "CC(C)C[C@H](N)C(=O)O", "note": "[leucine]", "values": [{"measurement": "tryptophan export from tryptophan-preloaded cells (counterexchange)", "setting": "[2]", "value": "able to promote tryptophan export"}]}
{"molecule": "CC(C)[C@H](N)C(=O)O", "note": "[valine]", "values": [{"measurement": "tryptophan export from tryptophan-preloaded cells (counterexchange)", "setting": "[2]", "value": "able to promote tryptophan export"}]}
{"molecule": "CSCC[C@H](N)C(=O)O", "note": "[methionine]", "values": [{"measurement": "tryptophan export from tryptophan-preloaded cells (counterexchange)", "setting": "[2]", "value": "able to promote tryptophan export"}]}
{"molecule": "N[C@@H](Cc1ccccc1)C(=O)O", "note": "[phenylalanine]", "values": [{"measurement": "tryptophan export from tryptophan-preloaded cells (counterexchange)", "setting": "[2]", "value": "able to promote tryptophan export"}]}
{"molecule": "Nc1c(O)cccc1C(=O)O", "note": "[HAA, hydroxy-anthranilic acid]", "values": [{"measurement": "FLIPW-CTYT response or interference with tryptophan binding in vitro", "setting": "[1]", "value": "did not result in a FLIPW-CTYT response or interfere with tryptophan binding to the sensor"}, {"measurement": "tryptophan export from tryptophan-preloaded cells (counterexchange)", "setting": "[2]", "value": "did not result in tryptophan export"}]}
{"molecule": "N[C@@H](Cc1c[nH]c2ccccc12)C(=O)O", "note": "[L-tryptophan]", "values": [{"measurement": "affinity of LAT1 for tryptophan uptake", "setting": "[3]", "value": 21.4, "unit": "µM"}, {"measurement": "affinity of the cells for combined uptake and metabolism of tryptophan", "setting": "[2]; perfusion imaging, Michaelis-Menten fit", "value": "2.6 ± 1.1", "unit": "µM"}, {"measurement": "Km", "setting": "[4]", "value": "0.88 ± 0.27", "unit": "µM"}]}
{"molecule": "N[C@@H](Cc1ccc(O)cc1)C(=O)O", "note": "[tyrosine]", "values": [{"measurement": "tryptophan export from tryptophan-preloaded cells (counterexchange)", "setting": "[2]", "value": "able to promote tryptophan export"}]}
{"molecule": "N[C@@H](Cc1c[nH]cn1)C(=O)O", "note": "[histidine, L-histidine]", "values": [{"measurement": "tryptophan export from tryptophan-preloaded cells (counterexchange)", "setting": "[2]", "value": "able to promote tryptophan export"}]}
{"molecule": "Nc1ccccc1C(=O)CC(N)C(=O)O", "note": "(stereo not drawn) [K, kynurenine]", "values": [{"measurement": "FLIPW-CTYT response or interference with tryptophan binding in vitro", "setting": "[1]", "value": "did not result in a FLIPW-CTYT response or interfere with tryptophan binding to the sensor"}, {"measurement": "tryptophan export from tryptophan-preloaded cells (counterexchange)", "setting": "[2]", "value": "resulted in reduction of the fluorophore emission ratios in the COS-7 cells, evidencing tryptophan export"}]}
{"molecule": "N[C@H](Cc1c[nH]c2ccccc12)C(=O)O", "note": "[D-tryptophan]", "values": [{"measurement": "concentration for decrease of FRET ratio relative to L-tryptophan", "setting": "[5]", "value": "about 5 fold"}, {"measurement": "reduced affinity of unmodified TrpR compared to L-tryptophan", "setting": "[6]", "value": 20, "unit": "fold"}]}
{"molecule": "B1", "values": [{"measurement": "effect on intracellular tryptophan concentration", "setting": "[7]", "value": "lower the intracellular tryptophan concentration"}]}
